Laboratory results published in paper PMC8744835, “Sterically Hindered Quaternary Phosphonium Salts (QPSs): Antimicrobial Activity and Hemolytic and Cytotoxic Properties” (International Journal of Molecular Sciences, 2021).

What was measured:
[1] = test system: methicillin-resistant S. aureus MRSA-2; assay: Antimicrobial activity, serial dilution technique in Mueller–Hinton Broth 2; assay type: cell-based, Staphylococcus aureus; settings: - means non-active; for Minimum Inhibitory Concentration (MIC), MRSA-2: MRSA-2 (resistant to beta-lactams)
Procedure: (§1) The synthesized compounds were tested for antimicrobial activity against a number of Gram-positive bacteria, Staphylococcus aureus (Sa), Bacillus cereus (Bc) and Enterococcus faecalis (Ef), and Gram-negative bacteria, Escherichia coli (Ec) and Pseudomonas aeruginosa (Pa), including the methicillin-resistant strains S. aureus MRSA-1 (resistant to fluoroquinolones and beta-lactams) and MRSA-2 (resistant to beta-lactams). The methicillin-resistant strains S. aureus were transferred by the Republican Clinical Hospital of the Republic of Tatarstan (Kazan). The fungicidal activity against Candida albicans (Ca) and Trichophyton mentagrophytes var. gypseum (Tm) was studied. These pathogens were chosen because they are the most widespread in the food industry and the healthcare system.
(§2) The antimicrobial activity of the QPSs was determined using the serial dilution technique in Mueller–Hinton Broth 2. The cultures used for testing included the Gram-positive bacteria Staphylococcus aureus ATCC 6538P FDA 209P, Enterococcus faecalis ATCC 2921 and Bacillus cereus ATCC 10702 NCTC 8035, the Gram-negative bacteria Escherichia coli ATCC 25922 and Pseudomonas aeruginosa ATCC 9027, and the fungi Trichophyton mentagrophytes var. gypseum 1773 and Candida albicans ATCC 10231; methicillin-resistant strains of S. aureus MRSA were obtained from hospital patients with chronic tonsillitis (MRSA-1) and sinusitis (MRSA-2) in the Republican Clinical Hospital (Kazan, Russia). […] The bacterial load was 3.0 × 10^5 cfu/mL. The results were recorded every 24 h for 5 days. The cultures were incubated at 37 °C. The experiment was repeated three times. […] The minimum inhibitory concentration (MIC) was defined as the minimum concentration of a compound that inhibits the growth of the corresponding test micro-organism. The growth of bacteria as well as the absence of growth due to the bacteriostatic action of a compound was recorded.

[2] = test system: methicillin-resistant S. aureus MRSA-1; assay: as above; assay type: cell-based, Staphylococcus aureus; settings: - means non-active; for Minimum Inhibitory Concentration (MIC), MRSA-1: MRSA-1 (resistant to fluoroquinolones and beta-lactams)
Procedure: as §1, §2

[3] = test system: Escherichia coli ATCC 25922; assay: as above; assay type: cell-based; settings: average of three ± SD, - means non-active
[4] = test system: Candida albicans ATCC 10231; assay: Fungicidal activity, serial dilution technique; assay type: cell-based; settings: average of three ± SD, - means non-active
Procedure: as §1
(§3) The antimicrobial activity of the QPSs was determined using the serial dilution technique in Mueller–Hinton Broth 2. The cultures used for testing included the Gram-positive bacteria Staphylococcus aureus ATCC 6538P FDA 209P, Enterococcus faecalis ATCC 2921 and Bacillus cereus ATCC 10702 NCTC 8035, the Gram-negative bacteria Escherichia coli ATCC 25922 and Pseudomonas aeruginosa ATCC 9027, and the fungi Trichophyton mentagrophytes var. gypseum 1773 and Candida albicans ATCC 10231; methicillin-resistant strains of S. aureus MRSA were obtained from hospital patients with chronic tonsillitis (MRSA-1) and sinusitis (MRSA-2) in the Republican Clinical Hospital (Kazan, Russia). Ciprofloxacin and ketoconazole were purchased from Sigma-Aldrich. The bacterial load was 3.0 × 10^5 cfu/mL. The results were recorded every 24 h for 5 days. The cultures were incubated at 37 °C. The experiment was repeated three times. […] The minimum inhibitory concentration (MIC) was defined as the minimum concentration of a compound that inhibits the growth of the corresponding test micro-organism. The growth of bacteria as well as the absence of growth due to the bacteriostatic action of a compound was recorded.

[5] = test system: Trichophyton mentagrophytes var. gypseum 1773; assay: Fungicidal activity, serial dilution technique; assay type: cell-based; settings: Tm, average of three ± SD, - means non-active; for MBC / MIC: Trichophyton mentagrophytes; for MBC: read-out: Minimum Bactericidal and Fungicidal Concentration (MBC, MFC), Tm; for MIC: read-out: Minimum Inhibitory Concentration (MIC), Tm
Procedure: as §1, §3

[6] = test system: Pseudomonas aeruginosa ATCC 9027; assay: Antimicrobial activity, serial dilution technique in Mueller–Hinton Broth 2; assay type: cell-based; settings: average of three ± SD, - means non-active; for MBC / MIC: Pseudomonas aeruginosa, ATCC9027, Pa; for MBC: read-out: Minimum Bactericidal and Fungicidal Concentration (MBC, MFC), Pa; for MIC: read-out: Minimum Inhibitory Concentration (MIC), Pa
Procedure: as §1, §2

[7] = test system: Staphylococcus aureus ATCC 6538P FDA 209P; assay: as above; assay type: cell-based; settings: average of three ± SD, - means non-active
Procedure: as §1, §2

[8] = test system: Enterococcus faecalis ATCC 2921; assay: as above; assay type: cell-based; settings: Ef; average of three ± SD; - means non-active
Procedure: as §1, §2

[9] = test system: Escherichia coli ATCC 25922; assay: as above; assay type: cell-based; settings: average of three ± SD, - means non-active; for MIC: Escherichia coli, ATCC25922, Ec, read-out: Minimum Inhibitory Concentration (MIC), Ec
Procedure: as §1, §2

[10] = test system: Bacillus cereus ATCC 10702 NCTC 8035; assay: as above; assay type: cell-based; settings: average of three ± SD, - means non-active
Procedure: as §1, §2

SMILES	Minimum Inhibitory Concentration (MIC), MRSA-2 [1]	Minimum Inhibitory Concentration (MIC), MRSA-1 [2]	Minimum Inhibitory Concentration (MIC), Sa [7]	Minimum Inhibitory Concentration (MIC), Ef [8]	Minimum Inhibitory Concentration (MIC), Bc [10]	Minimum Inhibitory Concentration (MIC), Pa [6]	Minimum Inhibitory Concentration (MIC), Ec [9]	Minimum Bactericidal and Fungicidal Concentration (MBC, MFC), MRSA-2 [1]	Minimum Bactericidal and Fungicidal Concentration (MBC, MFC), Ec [3]	Minimum Bactericidal and Fungicidal Concentration (MBC, MFC), Ca [4]	Minimum Inhibitory Concentration (MIC), Ca [4]	MBC [5]	MIC [5]	MBC [6]	Minimum Bactericidal and Fungicidal Concentration (MBC, MFC), Sa [7]	Minimum Bactericidal and Fungicidal Concentration (MBC, MFC), Ef [8]	Minimum Bactericidal and Fungicidal Concentration (MBC, MFC), Bc [10]	Minimum Bactericidal and Fungicidal Concentration (MBC, MFC), MRSA-1 ([2]; MRSA-1)	Minimum Bactericidal and Fungicidal Concentration (MBC, MFC), Tm [5]	Minimum Inhibitory Concentration (MIC), Tm [5]	further results
CCCCCCCCCCCCCCCCCCCC[P+](C(C)(C)C)(C(C)(C)C)C(C)(C)C [Compound 20b]	7.8 ± 0.6 µg/mL	15.6 ± 1.3 µg/mL	3.9 ± 0.2 µg/mL	7.8 ± 0.6 µg/mL	62.5 ± 5.5 µg/mL	125 ± 11 µg/mL	62.5 ± 5.7 µg/mL	7.8 ± 0.7 µg/mL	62.5 ± 5.5 µg/mL	31.3 ± 2.1 µg/mL	15.6 ± 1.3 µg/mL				3.9 ± 0.3 µg/mL	15.6 ± 1.3 µg/mL		15.6 ± 1.2 µg/mL	250 ± 18 µg/mL	250 ± 18 µg/mL	
CCCCCCCCCCCCC[P+](C(C)(C)C)(C(C)(C)C)C(C)(C)C [Compound 13b]	0.3 ± 0.01 µg/mL	0.3 ± 0.02 µg/mL	0.2 ± 0.01 µg/mL	1.9 ± 0.1 µg/mL	0.5 ± 0.04 µg/mL	31.3 ± 2.3 µg/mL	7.8 ± 0.6 µg/mL	3.9 ± 0.3 µg/mL	7.8 ± 0.6 µg/mL	7.8 ± 0.6 µg/mL	7.8 ± 0.5 µg/mL				0.2 ± 0.01 µg/mL	3.9 ± 0.3 µg/mL	31.3 ± 2.3 µg/mL	0.5 ± 0.03 µg/mL	62.5 ± 5.3 µg/mL	62.5 ± 5.2 µg/mL	Minimum Bactericidal and Fungicidal Concentration (MBC, MFC), Pa [6]: 31.3 ± 2.2 µg/mL
CCCCCCCCCCCCCC[P+](C(C)(C)C)(C(C)(C)C)C(C)(C)C [Compound 14b]	0.3 ± 0.02 µg/mL	0.3 ± 0.01 µg/mL	0.1 ± 0.008 µg/mL	0.9 ± 0.08 µg/mL	0.9 ± 0.07 µg/mL	7.8 ± 0.6 µg/mL	1.9 ± 0.1 µg/mL	0.5 ± 0.03 µg/mL	3.9 ± 0.2 µg/mL	15.6 ± 1.2 µg/mL	3.9 ± 0.3 µg/mL				1.9 ± 0.1 µg/mL	1.9 ± 0.1 µg/mL	15.6 ± 1.2 µg/mL	0.5 ± 0.03 µg/mL	15.6 ± 1.3 µg/mL	15.6 ± 1.3 µg/mL	Minimum Bactericidal and Fungicidal Concentration (MBC, MFC), Pa [6]: 62.5 ± 5.4 µg/mL

The next lines start with results.

Minimum Inhibitory Concentration (MIC), MRSA-2 [1]	Minimum Inhibitory Concentration (MIC), MRSA-1 [2]	Minimum Inhibitory Concentration (MIC), Sa [7]	Minimum Inhibitory Concentration (MIC), Ef [8]	Minimum Inhibitory Concentration (MIC), Bc [10]	Minimum Inhibitory Concentration (MIC), Pa [6]	Minimum Inhibitory Concentration (MIC), Ec [9]	SMILES	Minimum Bactericidal and Fungicidal Concentration (MBC, MFC), MRSA-2 [1]	Minimum Bactericidal and Fungicidal Concentration (MBC, MFC), Ec [3]	Minimum Bactericidal and Fungicidal Concentration (MBC, MFC), Ca [4]	Minimum Inhibitory Concentration (MIC), Ca [4]	MBC [5]	MIC [5]	MBC [6]	Minimum Bactericidal and Fungicidal Concentration (MBC, MFC), Sa [7]	Minimum Bactericidal and Fungicidal Concentration (MBC, MFC), Ef [8]	Minimum Bactericidal and Fungicidal Concentration (MBC, MFC), Bc [10]	Minimum Bactericidal and Fungicidal Concentration (MBC, MFC), MRSA-1 ([2]; MRSA-1)	Minimum Bactericidal and Fungicidal Concentration (MBC, MFC), Tm [5]	Minimum Inhibitory Concentration (MIC), Tm [5]	further results
0.9 ± 0.07 µg/mL	0.9 ± 0.07 µg/mL	0.9 ± 0.08 µg/mL	0.9 ± 0.07 µg/mL	7.8 ± 0.6 µg/mL			CCCCCCCCCCCCCCCCCC[P+](C(C)(C)C)(C(C)(C)C)C(C)(C)C [Compound 18a]	0.9 ± 0.07 µg/mL	15.6 ± 1.1 µg/mL	3.9 ± 0.2 µg/mL	1.9 ± 0.1 µg/mL	125 ± 9 µg/mL	125 ± 11 µg/mL	62.5 ± 5.6 µg/mL	0.9 ± 0.07 µg/mL	0.9 ± 0.07 µg/mL	31.3 ± 2.5 µg/mL				MBC ([2]; Staphylococcus aureus, MRSA, MRSA-1, read-out: Minimum Bactericidal and Fungicidal Concentration (MBC, MFC), MRSA-1): 15.6 ± 1.2 µg/mL; MIC [6]: 15.6 ± 1.2 µg/mL; MIC [9]: 15.6 ± 1.3 µg/mL
0.9 ± 0.07 µg/mL	0.9 ± 0.06 µg/mL	0.2 ± 0.01 µg/mL	1.9 ± 0.1 µg/mL	0.9 ± 0.07 µg/mL			CCCCCCCCCCCCCCCCC[P+](C(C)(C)C)(C(C)(C)C)C(C)(C)C [Compound 17a]	0.9 ± 0.06 µg/mL				125 ± 10 µg/mL	125 ± 10 µg/mL	7.8 ± 0.7 µg/mL		1.9 ± 0.1 µg/mL		0.9 ± 0.07 µg/mL			MBC ([3]; Escherichia coli, ATCC25922, Ec, read-out: Minimum Bactericidal and Fungicidal Concentration (MBC, MFC), Ec): 15.6 ± 1.3 µg/mL; MBC ([4]; Candida albicans, ATCC10231, Ca, read-out: Minimum Bactericidal and Fungicidal Concentration (MBC, MFC), Ca): 3.9 ± 0.2 µg/mL; MIC ([4]; Candida albicans, ATCC10231, Ca, read-out: Minimum Inhibitory Concentration (MIC), Ca): 1.9 ± 0.1 µg/mL; MIC [6]: 7.8 ± 0.5 µg/mL; MBC ([7]; Staphylococcus aureus, Sa, read-out: Minimum Bactericidal and Fungicidal Concentration (MBC, MFC), Sa): 0.5 ± 0.03 µg/mL; MIC [9]: 15.6 ± 1.2 µg/mL; MBC ([10]; Bacillus cereus, Bc, read-out: Minimum Bactericidal and Fungicidal Concentration (MBC, MFC), Bc): 15.6 ± 1.2 µg/mL
